In article PMC8207694, “Nucleoside transporter-guided cytarabine-conjugated liposomes for intracellular methotrexate delivery and cooperative choriocarcinoma therapy” (Journal of Nanobiotechnology, 2021):

Tests used:
JEG-3 cells [1] = experiment: In vitro cytotoxicity, MTT assay; format: cell-based; conditions: Homo sapiens; JEG-3, 48 h, MTX-equivalent
Experimental: (§1) The cytotoxicities of MTX formulations were assessed via MTT assay. The groups were as follows: MTX solution (free MTX), MTX plus DSPE-PEG2k-Cy (abbreviated as MTX + Cy-lipid, the molar ratio of Cy-lipid to MTX was about 1:5.0), Lipo@MTX, and Cy-Lipo@MTX. JEG-3 cells or Pricell-0051 cells were added to 96-well plates (1 × 10^4 cells/well). After 24 h, cells were rinsed using PBS and treated with MTX formulations (0.001–30 μg MTX-equivalent/mL) for 48 h at 37 °C [40]. Viability was assessed by adding 20 μL of MTT (5 mg/mL) per well for 4 h. Next, the medium was removed and formazan crystals were dissolved via the addition of 150 μL of DMSO. A microplate reader (Varioskan Flash 3001, Thermo Fisher Scientific, USA) was then used to assess absorbance at 490 nm.

Pricell-0051 cells = experiment: In vitro cytotoxicity, MTT assay; format: cell-based; conditions: Homo sapiens; Pricell-0051, 48 h, MTX-equivalent
Experimental: as §1

JEG-3 cells [2] = experiment: Cell cycle analysis (PI, flow cytometry); format: cell-based, human; conditions: 1 μg/mL MTX-equivalent, 24 h; control 5.44 ± 0.97%
Experimental: For cell cycle analysis, JEG-3 cells (10^5/well) were added to 6-well plates for 24 h and were then treated with culture medium or MTX formulation-contained culture medium at an equivalent MTX concentration (1 μg/mL) for another 24 h. Then, JEG-3 cells were collected (1000 rpm, 5 min) and fixed using 70% ethanol for 8 h at 4℃. After resuspended in PI/RNase Staining buffer for 30 min, the cell cycle was determined with flow cytometry.

JEG-3 cells [3] = experiment: Apoptosis (FITC Annexin V, flow cytometry); format: cell-based, human; conditions: 1 μg/mL MTX-equivalent, 24 h; control 10.39 ± 2.78%
Experimental: Apoptosis of JEG-3 cells was detected using the FITC Annexin V Apoptosis Detection Kit I. The cells (10^5/well) were seeded in 6-well plates. Following culture for 24 h, cells were treated with culture medium or MTX formulation-contained culture medium at an equivalent MTX concentration (1 μg/mL) for another 24 h. All other protocols were conducted based on the provided directions. The cells were analyzed by flow cytometry.

[4] = Pharmacokinetic study after intravenous administration; format: in vivo, SD rats; conditions: rats
Experimental: The advanced Automatic Blood Collection System (Instech, USA) was applied to study the pharmacokinetic feature of various MTX formulations. Female SD rats (200–220 g) were acclimatized at 25 ± 2 °C for 1 week before the experiments. Animals were randomized into 3 groups and each group contained 3 rats. Group I, II, and III were intravenously given free MTX, Lipo@MTX, and Cy-Lipo@MTX respectively at a dose of 10 mg MTX-equivalent/kg body weight. Blood (200 μL) was obtained at 0.25, 0.5, 1, 2, 4, 8, 12, 24, 48, and 72 h through jugular vein after administration. 150 μL of plasma was combined with 450 μL acetonitrile to precipitate proteins, and drug content of samples was analyzed by HPLC. The pharmacokinetic software (DAS 2.0) was used to assess key pharmacokinetic parameters including mean residence time (MRT), area under the curve (AUC), peak plasma concentration (Cmax), half-life (t1/2), and time to maximal plasma concentration (Tmax).

[5] = Biodistribution of MTX in tumor-bearing mice; format: in vivo; conditions: 2 h post-treatment
Experimental: JEG-3 tumor-bearing mice were also used for organ distribution studies. Animal groups and dosage were consistent with pharmacokinetic studies. For bio-distribution studies of MTX formulations, three animals per group were sacrificed at 2, 8, and 24 h following treatment, and tumors, lungs, kidneys, hearts, livers, and spleens were isolated, weighed, and frozen. These tissues were then homogenized, spun down for 1 min, rested for 45 min, and combined with 100 µl of 10% trichloroacetic acid solution followed by vortexing for 1 min, adding 5 mL of acetonitrile, and incubating for 10 min. Samples were then spun down for 10 min at 6,000 rpm, and supernatants were isolated, combined with mobile phase, and passed through 0.22 µm membrane filters. Finally, HPLC was applied to estimate the drug content of samples.

JEG-3 tumor models = experiment: Survival of large tumor-bearing mice (Kaplan-Meier); format: in vivo; conditions: mice bearing larger tumors 300-500 mm^3; saline 26 days
Experimental: When tumors were 50–100 mm^3 in size, nude mice were intravenously administrated with saline or MTX formulations (free MTX, MTX + Cy-lipid, Lipo@MTX, or Cy-Lipo@MTX, 5 mg MTX-equivalent/kg body weight, each group contained 6 mice) on day 6, 9, 12, 14, 18, and 21. On the 24th day, the mice were sacrificed, and the tumors, as well as the main organs, were excised, weighed, washed three times using saline, and subjected to fixation with 10% neutral buffered formalin. The tumor tissues were collected for H&E, TUNEL, and Ki67 staining. […] The survival of large tumor-bearing mice (300–500 mm^3 in size) was analyzed via Kaplan–Meier analysis (each group contained 5 mice).

[6] = Safety: body weight and H&E of primary organs during antitumor study; format: in vivo, mice
Experimental: Healthy mice were administered the Lipo@MTX or Cy-Lipo@MTX dispersion via tail vein (10 mg MTX-equivalent/kg body weight every three days) for five times (each group contained 3 mice). Saline was injected as a control. After the administration, blood biochemical indices were measured. During the in vivo antitumor studies, the body weight and activity status of mice in each group were monitored for evaluating the side effects of the MTX formulations. After in vivo antitumor studies, the primary organs of each group were harvested for H&E staining.

[7] = parameters: method as in PMID 22510625; conditions: liver damage, abdominal pain, gastrointestinal reactions, mucosal damage, bone marrow suppression; cited from earlier work
[8] = parameters: method as in PMID 28415433; conditions: cited from earlier work
[9] = female, Sprague-Dawley (SD), rat, plasma, iv, 10 mg/kg, 10 mg MTX-equivalent/kg

For `CN(Cc1cnc2nc(N)nc(N)c2n1)c1ccc(C(=O)N[C@@H](CCC(=O)O)C(=O)O)cc1` [free MTX, Methotrexate], the IC50 (JEG-3 cells [1]) was 19.6 µg/mL, the IC50 (Pricell-0051 cells) was 32.2 µg/mL and the “JEG-3 cells arrested at the S phase” value (JEG-3 cells [2]) was 11.59 ± 1.53%. The “apoptotic percentage of JEG-3 cells” value (JEG-3 cells [3]) was 18.03 ± 2.25%, the AUC(0-t) [4, 9] was 62400 ± 21500 ng·h/mL and the Cmax [4, 9] was 13500 ± 1960 ng/mL. It also gave a clearance [4, 9] of 1.43 mL/min, an MRT last ([4]; female, Sprague-Dawley (SD), rat, plasma, iv, 10 mg/kg, i.v., 10 mg MTX-equivalent/kg, read-out: MRT(0-t)) of 6.27 ± 2.52 h and a half-life ([4]; female, Sprague-Dawley (SD), rat, plasma, iv, 10 mg/kg, i.v., 10 mg MTX-equivalent/kg, read-out: t1/2β (converted)) of 5.23 ± 2.72 h. The concentration at 0.25 h ([4]; female, Sprague-Dawley (SD), rat, plasma, iv, after 0.25 h, i.v., 10 mg/kg, read-out: plasma MTX concentration) was 13500 ± 1960 ng/mL, the concentration at 4 h ([4]; female, Sprague-Dawley (SD), rat, plasma, iv, after 4 h, i.v., 10 mg/kg, read-out: plasma MTX concentration) was 4590 ± 1610 ng/mL and the concentration at 12 h ([4]; female, Sprague-Dawley (SD), rat, plasma, iv, after 12 h, i.v., 10 mg/kg, read-out: plasma MTX concentration) was 1140 ± 490 ng/mL. The concentration at 24 h ([4]; female, Sprague-Dawley (SD), rat, plasma, iv, after 24 h, i.v., 10 mg/kg, read-out: plasma MTX concentration) was 430 ± 360 ng/mL, the Vss ([4]; i.v., 10 mg MTX-equivalent/kg) was 0.58 ± 0.10 mg/kg/(mg/mL) and the “main organs of MTX distribution” value [5] was “found in the kidneys and liver”. The median survival time (JEG-3 tumor models) was 28 days, the “H&E-stained slices of major organs” value ([6]; end of treatment) was “many edematous glomeruli” and the “body weight change during treatment” value ([6]; tumor-bearing mice, 5 mg MTX-equivalent/kg) was “severe weight loss”. The “incidence rate of adverse reactions during systemic administration” value [7] was “more than 30%” and the “solubility in acidic versus neutral solutions” value [8] was “solubility of MTX in acidic solutions is greater than that in neutral solutions”.
